Results reported in the NIST ThermoML archive (doi:10.1016/j.fluid.2008.02.018).
Values joined by “and” are separate entries in the source; they are usually repeats but may differ in a detail not shown here. Identical values can stand only once. Numbers after ± are expanded uncertainties.

What was measured:
[1] = Liquid; for mass density: 101.33 kPa
[2] = refractive index (Na D-line) (dimensionless); details: 298.15 K; 101.33 kPa; Liquid; Standard Abbe refractometry

Compound	mass density ([1]; 298.15 K)	vapor or sublimation pressure ([1]; 298.15 K)	vapor or sublimation pressure ([1]; 308.15 K)	vapor or sublimation pressure ([1]; 318.15 K)	refractive index [2]
O=C1CCCC1 [cyclopentanone]	945.3 ± 1.2 kg/m3	1.72 ± 0.09 kPa	2.8 ± 0.1 kPa	4.64 ± 0.13 kPa	1.4347 ± 0.0007
ClC(Cl)Cl [trichloromethane]	1475.9 ± 2.1 kg/m3	26.44 ± 0.48 kPa	40.19 ± 0.65 kPa	58.69 ± 0.87 kPa and 58.68 ± 0.87 kPa	1.4428 ± 0.0007
O=C1CCCCC1 [cyclohexanone]	943 ± 1.2 kg/m3	0.64 ± 0.06 kPa	1.15 ± 0.08 kPa	1.91 ± 0.09 kPa	1.4482 ± 0.0007
ClCCCl [1,2-dichloroethane]	1250.9 ± 1.7 kg/m3	10.81 ± 0.23 kPa	17.02 ± 0.31 kPa	25.77 ± 0.42 kPa	1.4421 ± 0.0007
